For assay [1], the system named is TMD8 cells. Description: RNA-seq gene expression. The conditions noted are these: TMD8, 1 μM, 8 h; for number of genes reduced vs DMSO: FDR < 0.01, log2FC < -0.5; for number of genes increased vs DMSO: FDR < 0.01, log2FC > 0.5.
The next assay has as its target T1, KIT(V559D,V654A) (Homo sapiens, UniProt P10721, V559D/V654A).
T1 construct: purchased Eurofins DiscoverX KINOMEscan (scanTK)
Put plainly: KINOMEscan ScanTK. In kind it is binding.

The test system of a further assay is FLT3(ITD). Description: KINOMEscan ScanTK. In kind it is binding. The conditions noted are these: for % difference (compound - Ib %Control) / %Control: @1000nM.
A further assay has as its target T2, FLT3(K663Q) (Homo sapiens, UniProt P36888, K663Q).
T2 construct: purchased Eurofins DiscoverX KINOMEscan (scanTK)
T2 sequence (P36888 27-993 K663Q): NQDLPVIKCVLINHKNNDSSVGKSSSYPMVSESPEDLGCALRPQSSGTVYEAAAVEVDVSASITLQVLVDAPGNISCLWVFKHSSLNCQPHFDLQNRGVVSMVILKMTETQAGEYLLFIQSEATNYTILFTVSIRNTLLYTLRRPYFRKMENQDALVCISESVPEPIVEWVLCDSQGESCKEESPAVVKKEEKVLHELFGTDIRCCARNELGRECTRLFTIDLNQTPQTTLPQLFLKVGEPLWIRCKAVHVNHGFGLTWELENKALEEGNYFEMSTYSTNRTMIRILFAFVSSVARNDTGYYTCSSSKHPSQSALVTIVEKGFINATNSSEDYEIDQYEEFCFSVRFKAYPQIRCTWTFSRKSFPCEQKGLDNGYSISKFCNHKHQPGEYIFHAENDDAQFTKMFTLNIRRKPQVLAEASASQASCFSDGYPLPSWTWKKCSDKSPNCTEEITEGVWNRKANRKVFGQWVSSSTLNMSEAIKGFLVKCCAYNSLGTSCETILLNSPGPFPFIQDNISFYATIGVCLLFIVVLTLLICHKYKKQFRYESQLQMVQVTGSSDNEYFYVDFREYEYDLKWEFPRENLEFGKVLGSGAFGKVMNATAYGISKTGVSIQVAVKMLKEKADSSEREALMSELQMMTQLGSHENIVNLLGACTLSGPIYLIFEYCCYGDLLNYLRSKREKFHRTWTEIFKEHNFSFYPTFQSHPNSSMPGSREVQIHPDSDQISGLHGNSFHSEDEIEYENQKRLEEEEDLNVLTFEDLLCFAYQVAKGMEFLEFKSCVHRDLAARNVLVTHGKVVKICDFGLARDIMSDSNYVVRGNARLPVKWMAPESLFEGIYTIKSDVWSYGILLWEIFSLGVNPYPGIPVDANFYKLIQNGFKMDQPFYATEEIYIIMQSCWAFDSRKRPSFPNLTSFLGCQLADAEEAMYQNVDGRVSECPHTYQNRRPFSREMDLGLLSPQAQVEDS
Put plainly: KINOMEscan ScanTK. It is filed as binding.

The next assay deals with T3, FER (Homo sapiens, UniProt P16591).
T3 construct: purchased Eurofins DiscoverX KINOMEscan (scanTK)
T3 sequence (P16591 whole entry): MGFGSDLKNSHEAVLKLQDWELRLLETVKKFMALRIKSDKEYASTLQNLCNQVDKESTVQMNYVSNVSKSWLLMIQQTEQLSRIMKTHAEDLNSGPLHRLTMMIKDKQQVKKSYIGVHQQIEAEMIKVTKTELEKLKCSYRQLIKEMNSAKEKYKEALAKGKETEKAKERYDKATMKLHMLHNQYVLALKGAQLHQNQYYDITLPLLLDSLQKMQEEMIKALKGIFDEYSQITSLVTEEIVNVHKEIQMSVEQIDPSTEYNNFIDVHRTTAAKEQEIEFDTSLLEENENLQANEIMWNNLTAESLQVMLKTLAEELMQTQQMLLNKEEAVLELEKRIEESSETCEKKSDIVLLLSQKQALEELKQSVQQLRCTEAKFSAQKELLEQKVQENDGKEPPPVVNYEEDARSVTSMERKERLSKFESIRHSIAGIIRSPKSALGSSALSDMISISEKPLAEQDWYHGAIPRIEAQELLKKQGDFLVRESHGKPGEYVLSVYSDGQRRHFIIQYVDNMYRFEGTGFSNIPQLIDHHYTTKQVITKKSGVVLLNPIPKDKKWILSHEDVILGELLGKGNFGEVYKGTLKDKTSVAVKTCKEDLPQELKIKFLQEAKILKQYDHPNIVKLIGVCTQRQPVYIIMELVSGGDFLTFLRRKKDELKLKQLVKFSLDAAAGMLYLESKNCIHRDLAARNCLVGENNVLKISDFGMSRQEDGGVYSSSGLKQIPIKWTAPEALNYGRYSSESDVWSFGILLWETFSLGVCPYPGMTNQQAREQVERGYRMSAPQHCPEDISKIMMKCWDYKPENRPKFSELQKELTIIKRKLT
Put plainly: KINOMEscan ScanTK. It is filed as binding.

The subject of assay [2] is TMD8 cells. Description: Annexin V/propidium iodide staining (apoptosis, viability). The conditions noted are these: 72 h. It is filed as cell-based, human. The protocol:
We tested the effects of compounds in TMD8 cells, derived from an activated B-cell DLBCL. These cells have constitutive signaling via the BCR and additionally carry MYD88^L265P and CD79B mutations which give rise to My-T-BCR complex. […] Apoptosis was quantified after exposure of cells to compounds for 72 h using annexin V/PI staining and flow cytometry (Figure 3E, Figure S4).
Cells were washed in phosphate-buffered saline and resuspended in 300 μL of annexin V staining buffer (10 mM HEPES HCl (pH 7.4), 140 mM NaCl, 2.5 mM CaCl2) supplemented with 2.5 μg/mL fluorescein isothiocyanate-labeled annexin V (kind gift from Dr Patrick Duriez, Protein Core Facility, University of Southampton) and 12.5 μM propidium iodide (Invitrogen). Cells were analyzed by flow cytometry (Canto II system, BD Biosciences) and the percentage of viable cells was determined by calculating the proportion of Annexin V-/PI-cells as a percentage of all cells (results for untreated cells at 72 h set to 100%).

For the next assay, the target named is T4, EPHA5 (Homo sapiens, UniProt P54756).
T4 construct: purchased Eurofins DiscoverX KINOMEscan (scanTK)
T4 sequence (P54756 25-1037): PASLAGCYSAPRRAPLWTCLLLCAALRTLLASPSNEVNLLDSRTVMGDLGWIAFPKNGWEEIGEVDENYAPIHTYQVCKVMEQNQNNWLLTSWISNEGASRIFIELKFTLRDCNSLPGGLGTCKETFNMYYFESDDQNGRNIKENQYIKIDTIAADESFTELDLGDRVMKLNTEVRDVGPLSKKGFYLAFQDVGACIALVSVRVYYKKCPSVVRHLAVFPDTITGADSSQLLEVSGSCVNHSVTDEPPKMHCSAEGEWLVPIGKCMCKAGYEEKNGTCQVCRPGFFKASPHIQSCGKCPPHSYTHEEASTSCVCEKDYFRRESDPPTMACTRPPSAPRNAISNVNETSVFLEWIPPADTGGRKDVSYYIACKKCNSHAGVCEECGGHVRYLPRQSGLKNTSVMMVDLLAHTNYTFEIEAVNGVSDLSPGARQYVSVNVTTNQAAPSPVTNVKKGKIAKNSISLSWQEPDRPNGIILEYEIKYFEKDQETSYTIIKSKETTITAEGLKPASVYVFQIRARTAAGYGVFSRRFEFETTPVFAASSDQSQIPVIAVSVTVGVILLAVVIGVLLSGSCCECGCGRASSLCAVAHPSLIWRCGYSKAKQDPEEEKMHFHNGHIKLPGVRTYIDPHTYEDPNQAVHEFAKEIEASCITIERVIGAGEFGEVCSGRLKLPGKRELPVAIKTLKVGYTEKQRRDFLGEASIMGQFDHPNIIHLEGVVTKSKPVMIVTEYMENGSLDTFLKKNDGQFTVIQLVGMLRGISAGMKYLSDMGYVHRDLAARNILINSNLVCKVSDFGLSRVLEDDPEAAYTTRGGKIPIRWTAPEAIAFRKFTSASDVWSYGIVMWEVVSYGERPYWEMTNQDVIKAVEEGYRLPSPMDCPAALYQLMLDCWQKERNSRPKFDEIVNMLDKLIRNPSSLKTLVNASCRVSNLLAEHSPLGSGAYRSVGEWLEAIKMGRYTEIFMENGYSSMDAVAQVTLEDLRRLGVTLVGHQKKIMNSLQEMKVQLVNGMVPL
Put plainly: KINOMEscan ScanTK. It is filed as binding.

Another assay deals with BTK, full length (2–659) (Homo sapiens, UniProt Q06187). Description: Kinact/Ki determination, PhosphoSens progress curve analysis. In kind it is biochemical. Particulars: BTK; for kinact/KI: read-out: Kinact/Ki. The protocol: Nonlinear regression was performed using the Solver algorithm in Excel. […] Two-step Kinact/Ki fits were extracted from the progress curve analysis of all compounds against BTK, enabling independent Kinact and Ki determinations.
Chain of BTK, full length (2–659) (Q06187 2-659): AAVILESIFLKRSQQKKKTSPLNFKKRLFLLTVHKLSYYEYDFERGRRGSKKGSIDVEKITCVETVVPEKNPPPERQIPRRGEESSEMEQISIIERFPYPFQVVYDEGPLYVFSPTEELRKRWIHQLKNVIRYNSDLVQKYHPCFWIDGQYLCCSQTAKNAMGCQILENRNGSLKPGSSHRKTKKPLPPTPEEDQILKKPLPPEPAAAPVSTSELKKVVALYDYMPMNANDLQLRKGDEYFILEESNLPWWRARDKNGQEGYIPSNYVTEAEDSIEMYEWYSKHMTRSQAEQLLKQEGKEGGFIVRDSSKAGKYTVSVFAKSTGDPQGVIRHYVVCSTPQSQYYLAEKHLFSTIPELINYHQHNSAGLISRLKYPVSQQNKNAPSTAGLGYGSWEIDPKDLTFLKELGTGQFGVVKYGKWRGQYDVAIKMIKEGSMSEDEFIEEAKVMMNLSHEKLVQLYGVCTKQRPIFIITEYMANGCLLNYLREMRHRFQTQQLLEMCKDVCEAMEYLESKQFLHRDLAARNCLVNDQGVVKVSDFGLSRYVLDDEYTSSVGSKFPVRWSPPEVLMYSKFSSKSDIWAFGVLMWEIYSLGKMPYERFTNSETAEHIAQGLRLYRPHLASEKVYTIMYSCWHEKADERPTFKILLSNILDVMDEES

Where two headings read alike, the source gives them in different places.

T1 sequence (P10721 26-976 V559D/V654A): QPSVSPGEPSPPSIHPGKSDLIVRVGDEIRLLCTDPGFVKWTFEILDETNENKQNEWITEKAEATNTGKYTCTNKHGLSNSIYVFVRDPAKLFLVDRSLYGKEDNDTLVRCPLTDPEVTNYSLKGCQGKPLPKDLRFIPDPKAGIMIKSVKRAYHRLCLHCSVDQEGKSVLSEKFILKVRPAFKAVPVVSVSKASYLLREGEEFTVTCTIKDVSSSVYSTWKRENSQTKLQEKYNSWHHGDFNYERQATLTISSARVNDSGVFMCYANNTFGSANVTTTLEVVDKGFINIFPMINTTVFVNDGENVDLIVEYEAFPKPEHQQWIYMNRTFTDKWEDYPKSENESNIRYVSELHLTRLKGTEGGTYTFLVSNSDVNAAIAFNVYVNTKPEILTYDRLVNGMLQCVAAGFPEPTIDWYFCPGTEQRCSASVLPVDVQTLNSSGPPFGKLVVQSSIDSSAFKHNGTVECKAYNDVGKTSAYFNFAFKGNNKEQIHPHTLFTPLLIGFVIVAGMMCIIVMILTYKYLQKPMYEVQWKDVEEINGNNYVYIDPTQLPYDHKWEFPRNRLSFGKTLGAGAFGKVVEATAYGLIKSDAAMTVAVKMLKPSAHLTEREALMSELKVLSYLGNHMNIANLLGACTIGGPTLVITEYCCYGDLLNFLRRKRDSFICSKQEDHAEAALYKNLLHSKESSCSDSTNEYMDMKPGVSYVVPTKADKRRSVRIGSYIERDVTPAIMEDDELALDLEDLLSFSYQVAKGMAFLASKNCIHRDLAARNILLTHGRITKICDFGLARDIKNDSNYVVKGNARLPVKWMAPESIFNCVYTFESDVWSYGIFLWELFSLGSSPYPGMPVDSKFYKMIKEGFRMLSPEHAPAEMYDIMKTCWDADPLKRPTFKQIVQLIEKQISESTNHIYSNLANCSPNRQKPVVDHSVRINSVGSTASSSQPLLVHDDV

For the molecule `CCOC(=O)c1cnc(S(C)(=O)=O)nc1N1CCC[C@@H](n2nc(-c3ccc(Oc4ccccc4)cc3)c3c(N)ncnc32)C1` [Compound 8c, Ethyl (R)-4-(3-(4-Amino-3-(4-phenoxyphenyl)-1H-pyrazolo[3,4-d]pyrimidin-1-yl)piperidin-1-yl)-2-(methylsulfonyl)pyrimidine-5-carboxylate], the “number of genes unchanged vs DMSO” value with TMD8 cells [1] was found to be 15047 genes. Further, the “number of genes reduced vs DMSO” value in the assay on TMD8 cells [1] came to 0 genes. Besides, the “number of genes increased vs DMSO” value in the assay with TMD8 cells [1] was 0 genes. The remaining binding at 1 µM was 97% on KIT(V559D,V654A) (@1000nM, read-out: %Control); 97% at KIT(V559D,V654A) (read-out: %Control @1000nM); 100% on FLT3(K663Q) (@1000nM, read-out: %Control); 100% on FLT3(K663Q) (read-out: %Control @1000nM); 100% on FER (@1000nM, read-out: %Control); 100% on FER (read-out: %Control @1000nM). Further, the remaining binding at 1 µM at EPHA5 (@1000nM, read-out: %Control) was 100%; on EPHA5 (read-out: %Control @1000nM), 100%. Moreover, in the assay on FLT3(ITD), the “%Control @1000nM” value is 100%. Moreover, the “% difference (compound - Ib %Control)” value in the assay with FLT3(ITD) is reported as 28%. Moreover, the “%Control” value in the assay with FLT3(ITD) worked out at 100%. Further, the difference in %Control from compound Ib at 1 µM was 56% on FLT3(K663Q) (@1000nM) and 4% at EPHA5 (@1000nM). Moreover, the difference in %Control versus compound Ib at 1 µM on FER (@1000nM) was 0%. In the assay on TMD8 cells [2], the induction of apoptosis entry is “essentially inactive”.
`Cc1cnc(S(C)(=O)=O)nc1N1CCCC(n2nc(-c3ccc(Oc4ccccc4)cc3)c3c(N)ncnc32)C1` (stereo not drawn) [Compound 8a, 1-(1-(5-Methyl-2-(methylsulfonyl)pyrimidin-4-yl)piperidin-3-yl)-3-(4-phenoxyphenyl)-1H-pyrazolo[3,4-d]pyrimidin-4-amine]: the “number of genes unchanged vs DMSO” value with TMD8 cells [1] was 14761 genes. For the same molecule, in the assay on TMD8 cells [1], the “number of genes reduced vs DMSO” value turned out to be 189 genes. The “number of genes increased vs DMSO” value in the assay on TMD8 cells [1] is 97 genes. On BTK, full length (2–659), this molecule came in with a Ki of 9.08 ± 0.41 nM. The kinact at BTK, full length (2–659) was determined as 0.00659 ± 0.00019 s⁻¹. The kinact/KI on BTK, full length (2–659) amounted to 726000 M⁻¹ s⁻¹. Moreover, the remaining binding at 1 µM on KIT(V559D,V654A) (@1000nM, read-out: %Control) was 90%; on KIT(V559D,V654A) (read-out: %Control @1000nM), 90%; on FLT3(K663Q) (@1000nM, read-out: %Control), 58%; at FLT3(K663Q) (read-out: %Control @1000nM), 58%; at FER (@1000nM, read-out: %Control), 100%; on FER (read-out: %Control @1000nM) it was 100%. For the same molecule, the remaining binding at 1 µM on EPHA5 (@1000nM, read-out: %Control) turned out to be 95%; at EPHA5 (read-out: %Control @1000nM) it was 95%. The “%Control @1000nM” value in the assay on FLT3(ITD) is recorded as 91%. Also, in the assay on FLT3(ITD), the “% difference (compound - Ib %Control)” value stood at 19%. Besides, in the assay with FLT3(ITD), the “%Control” value was 91%. Also, the results for the difference in %Control from compound Ib at 1 µM at FLT3(K663Q) (@1000nM) and on EPHA5 (@1000nM) were 14% and -1%, respectively. The difference in %Control versus compound Ib at 1 µM on FER (@1000nM) came out at 0%. For the same molecule, in the assay on TMD8 cells [2], the “fold lower apoptotic potency than Ibrutinib” value was roughly 10 fold. In addition, the induction of apoptosis entry in the assay on TMD8 cells [2] is “induced apoptosis”.
Turning to `C=CC(=O)N1CCC[C@@H](n2nc(-c3ccc(Oc4ccccc4)cc3)c3c(N)ncnc32)C1` [Compound 1g, Ibrutinib, reference compound], in the assay on TMD8 cells [1], the “number of genes unchanged vs DMSO” value is 14846 genes. For the same molecule, in the assay on TMD8 cells [1], the “number of genes reduced vs DMSO” value is on record as 125 genes. In addition, in the assay on TMD8 cells [1], the “number of genes increased vs DMSO” value is reported as 76 genes. For the same molecule, the “%Control @1000nM” value with FLT3(ITD) amounted to 72%. Further, in the assay with FLT3(ITD), the “%Control” value worked out at 72%. In addition, the remaining binding at 1 µM came to 44% on FLT3(K663Q) (@1000nM, read-out: %Control); 44% at FLT3(K663Q) (read-out: %Control @1000nM); 100% at FER (@1000nM, read-out: %Control); 100% at FER (read-out: %Control @1000nM); 96% on EPHA5 (@1000nM, read-out: %Control); 96% at EPHA5 (read-out: %Control @1000nM).
As to `COC(=O)c1cnc(S(C)(=O)=O)nc1N1CCCC(n2nc(-c3ccc(Oc4ccccc4)cc3)c3c(N)ncnc32)C1` (stereo not drawn) [Compound 8b, Methyl 4-(3-(4-Amino-3-(4-phenoxyphenyl)-1H-pyrazolo[3,4-d]pyrimidin-1-yl)piperidin-1-yl)-2-(methylsulfonyl)pyrimidine-5-carboxylate], the “number of genes unchanged vs DMSO” value in the assay with TMD8 cells [1] was determined as 15031 genes. In the assay with TMD8 cells [1], the “number of genes reduced vs DMSO” value is recorded as 15 genes. For the same molecule, the “number of genes increased vs DMSO” value with TMD8 cells [1] is 1 genes. Moreover, the Ki on BTK, full length (2–659) was 24.2 ± 0.95 nM. Besides, the kinact on BTK, full length (2–659) worked out at 0.00792 ± 0.00019 s⁻¹. Also, the kinact/KI at BTK, full length (2–659) was found to be 328000 M⁻¹ s⁻¹. Also, the remaining binding at 1 µM was 86% at KIT(V559D,V654A) (@1000nM, read-out: %Control); 86% at KIT(V559D,V654A) (read-out: %Control @1000nM); 73% at FLT3(K663Q) (@1000nM, read-out: %Control); 73% on FLT3(K663Q) (read-out: %Control @1000nM); 90% on FER (@1000nM, read-out: %Control); 90% on FER (read-out: %Control @1000nM). Further, the remaining binding at 1 µM is 100% on EPHA5 (@1000nM, read-out: %Control) and 100% at EPHA5 (read-out: %Control @1000nM). Further, the “%Control @1000nM” value in the assay with FLT3(ITD) is given as 100%. The “% difference (compound - Ib %Control)” value in the assay with FLT3(ITD) came to 28%. The “%Control” value in the assay on FLT3(ITD) is 100%. Further, the results for the difference in %Control from compound Ib at 1 µM on FLT3(K663Q) (@1000nM) and at EPHA5 (@1000nM) were 29% and 4%, respectively. Moreover, at FER (@1000nM), the difference in %Control versus compound Ib at 1 µM is -10%. Further, the induction of apoptosis entry in the assay on TMD8 cells [2] is “induced apoptosis”.

In general, Ki refers to a measure of affinity in units of concentration, obtained from inhibition or displacement. Low values mean higher affinity, high ones lower affinity. Usually kinact stands for the rate constant of inactivation at saturating inhibitor.

(Values after publication PMC11345841, “Exploring 2-Sulfonylpyrimidine Warheads as Acrylamide Surrogates for Targeted Covalent Inhibition: A BTK Story” (Journal of Medicinal Chemistry, 2024).)
